Experiments:
HIV protease = target: T1, HIV protease (Human immunodeficiency virus type 1 group M subtype B, UniProt P04585); experiment: Recombinant HIV Protease HPLC Assay; type: biochemical; conditions: recombinant HIV protease expressed in E. coli; substrate VSFNFPQITL-NH₂; pH 5.5; 37° for 30 min; HPLC readout
T1 construct: HIV protease was expressed in E. coli; made in house; host or cells: E. coli
Description: The procedure is based on the capacity of the test compound to inhibit enzymatic cleavage by HIV protease of a decapeptide (the substrate) having an amino acid sequence which includes a known HIV protease cleavage site of a HIV polyprotein; see H.G. Krausslich et al., Proc. Natl. Acad. Sci. USA, 86, 807 (1989). Details of this assay together with the results obtained for exemplified compounds of formula 1 are described in the examples hereinafter.
Recombinant HIV Protease HPLC Assay: Enzyme: HIV protease was expressed in E. coli [construct pBRT1 prt⁺, see W.G. Farmerie et al., Science, 236,305 (1987)], according to the following protocol: Unless stated otherwise, all solutions are aqueous solutions.
E. coli cells containing the pBRT1 prt⁺ plasmid were used to inoculate a seed culture media composed of Luria-Bertani Broth containing 100µg/mL of ampicillin. Flasks were incubated at 37° under agitation for 17 h. Production flasks containing sterile M9 broth, supplemented with 100µg/ml of ampicillin, were inoculated at a level of 1% (v/v) using the seed culture described above. Total volume in each production flask was 500 mL in a 2 L Erlenmeyer flask. Flasks were incubated at 37° under agitation until a cell concentration corresponding to an optical density (λ = […]) of 0.6 was reached (no dilution). This time span was routinely 3-4 h. Flasks were then supplemented with 5mM isopropylthiogalactoside (IPTG, Research Organics, Cleveland, Ohio, USA) and incubation was continued until the cell concentration reached an optical density of 0.2 at 16-fold dilution. Flasks were then supplemented with 1mM phenylmethylsulfonyl fluoride (PMSF) and rapidly chilled to 4°. The bacterial cells were recovered by centrifugation at 4°. The wet pellet was stored at -70°.
All steps below were performed at 4° unless otherwise indicated. Thawed cells were mixed with buffer A [50 mM […] HCl(Tris-HCl, pH 7.4); 0.6 mM ethylenediaminetetraacetic acid (EDTA); 0.375 M NaCl, 0.2% Nonidet P-40 ^R (BDH Chemicals Ltd., Poole, UK); 1mM PMSF], at a ratio of one part cells to nine parts buffer A. Diatomaceous earth (Celite 545 ^R , John Manville, Lompoc, CA, USA) was added at a ratio of two parts to one part of wet cell weight. The resulting slurry was homogenized at high speed (ca. 20,000 rpm) on a Waring ^R industrial blender for 8 x 15 sec. pulses. Cell debris/Celite ^R was collected by centrifugation and the resulting pellet was extracted with 4.5 parts of buffer A to one part wet solids using the homogenization procedure described above. Supernatants from both homogenization steps were combined and soluble protein was precipitated by the addition of solid (NH₄)₂SO₄ to yield a final concentration of 75% saturation. This mixture was agitated for 60 min and the precipitate was recovered by centrifugation. The resulting pellet was suspended in buffer B [50mM Tris-HCl, pH 8; 30 mM NaCl; 1 mM DL-dithiothreitol(DTT); 1 mM EDTA; 1 mM PMSF; 10% glycerol], and dialyzed for 18h against the same buffer.
An aliquot of the dialyzed extract containing 150 mg of the protein was loaded onto a Sephadex A25 ^R anion exchange column. (Pharmacia, Uppsala, Sweden) with bed dimensions of 70 cm length and 2.5 cm diameter. The sample was eluted isocratically with buffer B at a linear flow rate of 10 cm/h. Fractions containing HIV protease activity (see below for assay description) were combined, and soluble protein was precipitated by the addition of saturated aqueous (NH₄)₂SO₄ to yield a total (NH₄)₂SO₄ concentration of 85% saturation. Precipitated protein was removed by centrifugation and the resulting pellet was dissolved in buffer C[50 mM 2-(4-morpholino)ethanesulfonic acid (MES), pH 5.5; 150 mM NaCl; 1 mM DTT; 1 mM EDTA; 10% glycerol]. This preparation was dialyzed for 18h against buffer C, and then frozen at -70°. All crude extracts were purified by chromatography in aliquots containing 150 mg of protein in the same manner as described above. […]

HIV = experiment: Inhibition of syncytia formation by HIV in HTLV-I transformed C8166 cells (adapted plaque assay); type: cell-based, H9/HTLV-IIIB; conditions: Human immunodeficiency virus 1, IIIB, C8166, 72 h, read-out: inhibition of syncytia formation
Description: Typical of such procedures are those described by S. Harada and N. Yamamoto, Jpn. J. Cancer Res. (Gann), 76, 432 (1985), and S. Harada et al., Science 229, 563 (1985). An assay based on the latter procedures is described in the examples hereinafter.
The following protocol, used for screening antiviral effects of the compounds of formula 1, is adapted from a plaque assay utilizing HTLV-I transformed cells which was developed by Harada et al., supra. HTLV-I transformed cells are used in these assays because of the rapidity with which HIV will replicate in these cells. • 1. The test compound is dissolved in dimethylsulfoxide to a concentration of 5 mg/mL. The resultant solution can be stored at 4° until used. • 2. The resultant solution is diluted in RPMI 1640 (Gibco Laboratories, St. Lawrence, MA, USA) to four times (4x) the final concentration which is to be tested. Once diluted in RPMI 1640, the solution is used in the cell culture assay within 4 h. • 3. The 4x solution (50µL) is added to triplicate wells of a 96 well flat bottomed microtiter plate. RPMI […] also is added to control wells. • 4. […] Infectious titer of virus stocks are as previously determined by end point dilution on C8166 cells. […] Plates are then removed and centers of syncytia are counted in each well by low power phase contrast light microscopy. […] Percent inhibition of syncytia formation is calculated by the formula: [formula]

Compound: CCC(CC)C(=O)NC(C(=O)NC(CC1CCCCC1)C(O)CC(=O)NC(CC1CC1)C(=O)NCCCc1ccccc1)C(C)C (stereo not shown) [(C2H5)2CHC(O)-Val-ACHPA-Cpa-NHCH2CH2CH2Ph]
- IC50 (HIV protease): 0.135 µM

Compound: CC(C)(C)CC(=O)NC(C(=O)NC(CC1CCCCC1)C(O)CC(=O)NC(CCC(=O)O)C(=O)NCCc1ccccc1)C(C)(C)C (stereo not shown) [(CH3)3CCH2C(O)-Tbg-ACHPA-Glu-NHCH2CH2Ph, (CH₃)₃CCH₂C(O)-Tbg-ACHPA-Glu-NHCH₂CH₂Ph]
- IC50 (HIV protease): 0.11 µM

Compound: COC(=O)CCC(NC(=O)CC(O)C(CC1CCCCC1)NC(=O)C(NC(=O)C(O)CO)C(C)(C)C)C(=O)NCCc1ccccc1 [(S)-HOCH₂CH(OH)C(O)-Tbg-ACHPA-Glu(OMe)NHCH₂CH₂Ph]
- IC50 (HIV protease): 0.2 µM
- inhibition at 20 µg/mL (HIV): 100%

Compound: CC(C)(C)C(NC(=O)C(O)CO)C(=O)NC(CC1CCCCC1)C(O)CC(=O)NC(CCC(=O)O)C(=O)NCCc1ccccc1 [(S)-HOCH₂CH(OH)C(O)-Tbg-ACHPA-Glu-NHCH₂CH₂Ph]
- IC50 (HIV protease): 0.0092 µM

Compound: CC(=O)NC(C(=O)NC(CC1CCCCC1)C(O)CC(=O)NC(CC1CC1)C(=O)NCCc1ccccc1)C(C)(C)C (stereo not shown) [Ac-Tbg-ACHPA-Cpa-NHCH2CH2Ph, Ac-Tbg-ACHPA-Cpa-NHCH₂CH₂Ph]
- IC50 (HIV protease): 0.093 µM

Compound: COC(=O)CCC(NC(=O)CC(O)C(CC1CCCCC1)NC(=O)C(NC(C)=O)C(C)(C)C)C(=O)NCCc1ccccc1 (stereo not shown) [Ac-Tbg-ACHPA-Glu(OMe)-NHCH2CH2Ph, Ac-Tbg-ACHPA-Glu(OMe)-NHCH₂CH₂Ph]
- IC50 (HIV protease): 0.15 µM

Compound: CC(=O)NC(C(=O)NC(CC1CCCCC1)C(O)CC(=O)NC(CCC(=O)O)C(=O)NCCc1ccccc1)C(C)(C)C (stereo not shown) [Ac-Tbg-ACHPA-Glu-NHCH2CH2Ph, Ac-Tbg-ACHPA-Glu-NHCH₂CH₂Ph]
- IC50 (HIV protease): 0.012 µM

Compound: COC(=O)CCC(NC(=O)CC(O)C(CC1CCCCC1)NC(=O)C(NC(C)=O)C(C)C)C(=O)NCCc1ccccc1 (stereo not shown) [Ac-Val-ACHPA-Glu(OMe)-NHCH2CH2Ph, Ac-Val-ACHPA-Glu(OMe)NHCH₂CH₂Ph]
- IC50 (HIV protease): 0.48 µM

Compound: CC(=O)NC(C(=O)NC(CC1CCCCC1)C(O)CC(=O)NC(CCC(=O)O)C(=O)NCCc1ccccc1)C(C)C (stereo not shown) [Ac-Val-ACHPA-Glu-NHCH2CH2Ph, Ac-Val-ACHPA-Glu-NHCH₂CH₂Ph]
- IC50 (HIV protease): 0.031 µM

Compound: CC(=O)NC(C(=O)NC(CNC(CC(C)C)C(=O)NC(CCC(=O)O)C(=O)NCCc1ccccc1)Cc1ccccc1)C(C)C (stereo not drawn) [Ac-Val-Pheψ[CH2NH]Leu-Glu-NHCH2CH2Ph, Ac-Val-PheΨ[CH₂NH]Leu-Glu-NHCH₂CH₂Ph]
- IC50 (HIV protease): 0.016 µM

Compound: CCC(=O)NC(C(=O)NC(CC1CCCCC1)C(O)CC(=O)NC(CCC(=O)O)C(=O)NCCc1ccccc1)C(C)(C)C (stereo not shown) [CH3CH2C(O)-Tbg-ACHPA-Glu-NHCH2CH2Ph, CH₃CH₂C(O)-Tbg-ACHPA-Glu-NHCH₂CH₂Ph]
- IC50 (HIV protease): 0.015 µM
- inhibition at 20 µg/mL (HIV): 49%

— patent publication EP0443573A2, “HIV protease inhibitors containing derived amino acids” (BIO-MEGA/BOEHRINGER INGELHEIM RESEARCH INC., priority 1990, dated 1991)
